Read-outs that look alike come from different tables or passages of the source.
How the values were obtained:
[1] = tested on: Key Broadleaf Weed and Crop Species; test: Post-emergent Test II herbicidal activity (Table 15); format: in vivo; settings: post-emergence, 336 h, 14 d; for pest or weed control at 35 g/ha: 35 g ai/ha; for pest or weed control at 70 g/ha: 70 g ai/ha; for pest or weed control at 140 g/ha: 140 g ai/ha
In short: (§1)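 Post-emergence spray; seedlings 7-21 d old, 1st-2nd true leaf; 187 L/ha; serial rates 1×-1/16×; solvent blank controls; subirrigated; visual % injury at 14 d.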

[2] = tested on: Key Grass and Sedge Weeds as well as Grass Crops; test: Post-emergent Test II herbicidal activity (Table 16); format: in vivo; settings: post-emergence, 336 h, 14 d; for pest or weed control at 35 g/ha: 35 g ai/ha; for pest or weed control at 70 g/ha: 70 g ai/ha; for pest or weed control at 140 g/ha: 140 g ai/ha
In short: as §1

[3] = Abutilon theophrasti, velvetleaf (Abutilon theophrasti), read-out: Visual Growth Reduction (%) 14 Days After Application, ABUTH
[4] = Amaranthus retroflexus, redroot pigweed (Amaranthus retroflexus), read-out: Visual Growth Reduction (%) 14 Days After Application, AMARE
[5] = Brassica napus, oilseed rape, canola (Brassica napus), read-out: Visual Growth Reduction (%) 14 Days After Application, BRSNN
[6] = Chenopodium album, lambsquarters (Chenopodium album), read-out: Visual Growth Reduction (%) 14 Days After Application, CHEAL
[7] = Euphorbia heterophylla, wild poinsettia (Euphorbia heterophylla), read-out: Visual Growth Reduction (%) 14 Days After Application, EPHHL
[8] = Helianthus annuus, sunflower (Helianthus annuus), read-out: Visual Growth Reduction (%) 14 Days After Application, HELAN
[9] = Cyperus esculentus, yellow nutsedge (Cyperus esculentus), read-out: Visual Growth Reduction (%) 14 Days After Application, CYPES
[10] = Echinochloa crus-galli, barnyardgrass (Echinochloa crus-galli), read-out: Visual Growth Reduction (%) 14 Days After Application, ECHCG
[11] = Oryza sativa, rice (Oryza sativa), read-out: Visual Growth Reduction (%) 14 Days After Application, ORYSA
[12] = Setaria faberi, giant foxtail (Setaria faberi), read-out: Visual Growth Reduction (%) 14 Days After Application, SETFA
[13] = Triticum aestivum, wheat, spring (Triticum aestivum), read-out: Visual Growth Reduction (%) 14 Days After Application, TRZAS
[14] = Zea mays, maize, corn (Zea mays), read-out: Visual Growth Reduction (%) 14 Days After Application, ZEAMX

SMILES | pest or weed control at 35 g/ha [1, 3] | pest or weed control at 70 g/ha [1, 3] | pest or weed control at 140 g/ha [1, 3] | pest or weed control at 35 g/ha [1, 4] | pest or weed control at 70 g/ha [1, 4] | pest or weed control at 140 g/ha [1, 4] | pest or weed control at 35 g/ha [1, 5] | pest or weed control at 70 g/ha [1, 5] | pest or weed control at 140 g/ha [1, 5] | pest or weed control at 35 g/ha [1, 6] | pest or weed control at 70 g/ha [1, 6] | pest or weed control at 140 g/ha [1, 6] | pest or weed control at 35 g/ha [1, 7] | pest or weed control at 70 g/ha [1, 7] | pest or weed control at 140 g/ha [1, 7] | pest or weed control at 35 g/ha [1, 8] | pest or weed control at 70 g/ha [1, 8] | pest or weed control at 140 g/ha [1, 8] | pest or weed control at 35 g/ha [2, 9] | pest or weed control at 70 g/ha [2, 9] | further results
Nc1c(Cl)c(C(=O)O)nc(-c2ccc3sccc3c2)c1Cl [Compound 3.02, 4-Amino-6-(benzo[b]thiophen-5-yl)-3,5-dichloropicolinic acid] | 0 to 29% | 0 to 29% | 0 to 29% | 95 to 100% | 95 to 100% | 95 to 100% | 0 to 29% | 0 to 29% | 0 to 29% | 85 to 94% | 85 to 94% | 85 to 94% | 0 to 29% | 0 to 29% | 0 to 29% | 60 to 74% | 75 to 84% | 85 to 94% | 0 to 29% | 0 to 29% | pest or weed control at 140 g/ha [2, 9]: 0 to 29%; pest or weed control at 35 g/ha [2, 10]: 0 to 29%; pest or weed control at 70 g/ha [2, 10]: 0 to 29%; pest or weed control at 140 g/ha [2, 10]: 0 to 29%; pest or weed control at 35 g/ha [2, 11]: 0 to 29%; pest or weed control at 70 g/ha [2, 11]: 0 to 29%; pest or weed control at 140 g/ha [2, 11]: 0 to 29%; pest or weed control at 35 g/ha [2, 12]: 0 to 29%; pest or weed control at 70 g/ha [2, 12]: 0 to 29%; pest or weed control at 140 g/ha [2, 12]: 0 to 29%; pest or weed control at 35 g/ha [2, 13]: 0 to 29%; pest or weed control at 70 g/ha [2, 13]: 0 to 29%; pest or weed control at 140 g/ha [2, 13]: 0 to 29%; pest or weed control at 35 g/ha [2, 14]: 0 to 29%; pest or weed control at 70 g/ha [2, 14]: 60 to 74%; pest or weed control at 140 g/ha [2, 14]: 60 to 74%; melting point: 157 to 159 °C
COC(=O)c1nc(-c2ccc3ccoc3c2F)c(F)c(N)c1Cl [Compound 2.09] | 85 to 94% | 85 to 94% | 85 to 94% | 85 to 94% | 95 to 100% | 95 to 100% | 60 to 74% | 75 to 84% | 85 to 94% | 95 to 100% | 95 to 100% | 95 to 100% | 95 to 100% | 95 to 100% | 95 to 100% | 60 to 74% | 75 to 84% | 85 to 94% | 0 to 29% | 0 to 29% | pest or weed control at 140 g/ha [2, 9]: 0 to 29%; pest or weed control at 35 g/ha [2, 10]: 60 to 74%; pest or weed control at 70 g/ha [2, 10]: 85 to 94%; pest or weed control at 140 g/ha [2, 10]: 85 to 94%; pest or weed control at 35 g/ha [2, 11]: 0 to 29%; pest or weed control at 70 g/ha [2, 11]: 30 to 44%; pest or weed control at 140 g/ha [2, 11]: 30 to 44%; pest or weed control at 35 g/ha [2, 12]: 45 to 59%; pest or weed control at 70 g/ha [2, 12]: 60 to 74%; pest or weed control at 140 g/ha [2, 12]: 60 to 74%; pest or weed control at 35 g/ha [2, 13]: 0 to 29%; pest or weed control at 70 g/ha [2, 13]: 0 to 29%; pest or weed control at 140 g/ha [2, 13]: 0 to 29%; pest or weed control at 35 g/ha [2, 14]: 45 to 59%; pest or weed control at 70 g/ha [2, 14]: 60 to 74%; pest or weed control at 140 g/ha [2, 14]: 60 to 74%; melting point: 151 °C
